From patent publication US11420934B2, “PPAR agonists” (Salk Institute for Biological Studies, priority 2013, dated 2022)
Read-outs that look alike come from different tables or passages of the source.

What was measured:
[1] = biological target: T1, PPARδ (Homo sapiens, UniProt Q03181); assay: Nuclear Hormone Receptor (NHR) protein interaction assay (PathHunter), agonist format; type: cell-based
T1 construct: expressed in transfected cells; host or cells: PathHunter NHR cell lines
T1 sequence (Q03181 1-441): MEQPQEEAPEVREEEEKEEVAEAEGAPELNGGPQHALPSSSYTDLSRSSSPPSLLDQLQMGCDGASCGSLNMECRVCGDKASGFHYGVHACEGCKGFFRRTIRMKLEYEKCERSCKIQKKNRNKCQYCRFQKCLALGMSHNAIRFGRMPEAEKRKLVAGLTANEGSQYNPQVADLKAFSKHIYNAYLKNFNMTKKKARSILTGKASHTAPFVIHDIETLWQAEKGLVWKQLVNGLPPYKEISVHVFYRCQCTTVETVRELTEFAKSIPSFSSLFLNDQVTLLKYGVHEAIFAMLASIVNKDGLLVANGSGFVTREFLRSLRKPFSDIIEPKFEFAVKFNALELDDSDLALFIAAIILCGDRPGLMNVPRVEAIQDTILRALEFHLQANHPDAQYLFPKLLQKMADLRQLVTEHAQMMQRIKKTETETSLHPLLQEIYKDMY
Experimental: PathHunter NHR cell lines were expanded from freezer stocks according to standard procedures. Cells were seeded in a total volume of 20 μL into white walled, 384-well microplates and incubated at 37° C. for the appropriate time prior to testing. Assay media contained charcoal-dextran filtered serum to reduce the level of hormones present.
For agonist determination, cells were incubated with sample to induce response. Intermediate dilution of sample stocks was performed to generate 5× sample in assay buffer. 5 μL of 5× sample was added to cells and incubated at 37° C. or room temperature for 3-16 hours. Final assay vehicle concentration was 1%.
Microplates were read following signal generation with a PerkinElmer Envision™ instrument for chemiluminescent signal detection.
Compound activity was analyzed using CBIS data analysis suite (ChemInnovation, CA). For agonist mode assays, percentage activity was calculated using the following formula: % Activity=100%×(mean RLU of test sample−mean RLU of vehicle control)/(mean MAX control ligand−mean RLU of vehicle control).

[2] = Pharmacokinetics in CD-1 mice; type: in vivo
Experimental: (§1) In this example, the PK profile of several PPARδ agonists disclosed herein in male CD-1 mice or Wistar rats was determined. Similar methods can be used to analyze other compounds provided herein.
(§2) (quantity sufficient i.e. made up to a final volume of 100% with water). All compounds were separately administered to CD-1 mice at 3 mg/kg iv or 10 mg/kg po.
(§3) The concentration of the compound in plasma was determined, as illustrated in FIGS. 9A-9E.

[3] = Pharmacokinetics in Wistar rats; type: in vivo; settings: male Wistar rats
Experimental: as §1, §2, §3

[4] = type: in vitro ADME
[5] = test system: thermal injury to the TA; assay: Muscle regeneration after thermal (freeze burn) injury to the TA, oral GW501516; type: in vivo, C57BL6J mice
Experimental: A stainless steel […] (Mettler-Toledo) equilibrated to the temperature of dry ice was placed directly on the exposed TA for 10 seconds. Following the thermal injury, incision was closed using VetBond (3M). All injury procedures were performed on the left leg, and the right leg was used as control.
Sterile 1% w/v Evans Blue dye in PBS was intraperitoneally injected at 1% volume relative to the body mass of an animal. 7 hours after the injection, injured TA muscles were harvested and snap-frozen by isopentane quenching in liquid nitrogen. Frozen sections were cut in 10 μm thickness, fixed in ice-cold acetone, dipped in xylene and mounted with DPX. Proportion of the stained area over the total area was measured using ImageJ software.
50 mg/kg body weight of BrdU (Sigma) was injected intraperitoneally as solution of 10 mg/mL BrdU in saline. TA muscles were harvested at 7 days after injury and processed for paraffin sections as described above. BrdU incorporation was visualized using the BrdU Labeling and Detection Kit I (Roche) and BrdU+ nuclei were counted and represented as a proportion of total nuclei in a field.
Whole or partial tissues were homogenized by Polytron probe homogenizer in Trizol reagent (Invitrogen). Total RNA was extracted from the homogenates according to the manufacturer's protocol. 1 μg of DNase-treated total RNA was reverse transcribed using Superscript II Reverse Transcriptase (Invitrogen) according to the manufacturer's instructions. cDNAs were diluted 1/40 with ddH2O and used as templates in RT-QPCR reactions with SYBRGreenER qPCR SuperMix detection system (Invitrogen). Samples were prepared in technical triplicates and relative mRNA levels were calculated by using the standard curve methodology and normalized against GAPDH mRNA levels in the same samples.

[6] = test system: FGF1a promoter; assay: Luciferase reporter assay of FGF1a promoter co-transfected with PPARδ; type: cell-based; settings: with ligand
[7] = test system: AKO mice; assay: GW treatment in mouse model of ALD (AKO mice); type: in vivo
Description: ALD is a rare genetic disorder caused by defects in peroxisomal oxidation of very long-chain fatty acids (VLCFAs), resulting in systemic accumulation of VLCFAs, which causes tissue defects mainly in the central nervous system and the adrenal glands. The majority of VLCFAs in the body are endogenously synthesized from long-chain fatty acids (LCFAs). Therefore, one potential way to prevent VLCFA accumulation in ALD is by inducing mitochondrial LCFA oxidation to reduce the availability of LCFAs for VLCFA biosynthesis. In order to test this, a previously described mouse model of ALD was used, in which the X-linked adrenoleukodystrophy gene abcd1 was systemically ablated and the knockout (AKO) mice faithfully recapitulated the abnormal VLCFA accumulation phenotype seen in ALD patients.
3-month-old AKO mice were treated with or without GW and their tissues collected for free FA analysis using GC/MS.

[8] = Tables 7-16, read-out: NHR protein interaction assay, EC50 (nM) for PPARδ

| EC50 [1, 8] [nM] | EC50 [1] [nM] | SMILES | also measured |
| --- | --- | --- | --- |
| 7.1 | – | Cc1ccc(OCCCCCC(=O)O)c(CN(C(=O)c2ccc(-c3ccco3)cc2)C(C)C)c1 [compound 203] | – |
| – | > 10000 | CC(C)N(Cc1ccccc1OCCCCCC(=O)O)C(=O)c1ccc(S(C)(=O)=O)cc1 [compound 130] | – |
| – | 206 | CC(C)N(Cc1ccccc1OCCCCCC(=O)O)C(=O)c1ccc(-c2ccco2)cn1 [compound 153] | – |
| – | > 10000 | CC(C)N(Cc1ccccc1OCCCCCC(=O)O)C(=O)c1ccc(OC2CC2)cc1 [compound 134] | – |
| 291 | – | CC(C)N(Cc1ccccc1OCCCCCC(=O)O)C(=O)c1ccc(Cl)cc1 [Compd 125] | – |
| 512 | – | CC(C)N(Cc1ccccc1OCCCCCCC(=O)O)C(=O)c1ccc(-c2ccco2)cc1 [compound 220] | – |
| 1610 | – | Cc1ccc(C(=O)N(Cc2ccccc2OCCCCCC(=O)O)C(C)C)cc1 [Compd 131] | – |
| 5390 | – | CC(C)N(Cc1ccccc1OCCCCCC(=O)O)C(=O)c1ccc(N(C)C)cc1 [Compd 128] | – |
| 2180 | – | CC(C)N(Cc1ccccc1OCCCCCC(=O)O)C(=O)c1ccc(F)cc1 [compound 132] | – |
| 24.6 | – | CC(C)N(Cc1cc(F)ccc1OCCCCCC(=O)O)C(=O)c1ccc(-c2ccco2)cc1 [compound 204] | – |
| 1300 | – | COc1ccc(C(=O)N(Cc2ccccc2OCCCCCC(=O)O)C(C)C)cc1 [compound 126] | – |
| 894 | – | CC(C)N(Cc1ccccc1OCCCCCC(=O)O)C(=O)c1ccc(C#N)cc1 [compound 151] | – |
| – | 26.1 | CC(C)N(Cc1ccccc1OCCCCCC(=O)O)C(=O)c1ccc(-c2ccco2)nc1 [compound 155] | – |
| 352 | – | CC(C)N(Cc1ccccc1OCCCCCC(=O)O)C(=O)c1ccc(N2CCCC2)cc1 [compound 136] | – |
| 44.6 | – | CC(C)N(Cc1ccccc1OCCCCCC(=O)O)C(=O)c1ccc(OC(F)(F)F)cc1 [compound 127] | – |
| 10.5 | – | CC(C)N(Cc1ccccc1OCCCCCC(=O)O)C(=O)c1ccc(C#CC2CC2)cc1 [Compd 245] | – |
| 5070 | – | CC(=O)c1ccc(C(=O)N(Cc2ccccc2OCCCCCC(=O)O)C(C)C)cc1 [compound 129] | – |

The remaining lines, values behind:

| SMILES | EC50 [1, 8] [nM] | EC50 [1] [nM] | also measured |
| --- | --- | --- | --- |
| CN(Cc1ccccc1OCCCCCC(=O)O)C(=O)c1ccc(C#CC2CC2)cc1 [compound 248] | 21.1 | – | – |
| Cc1cc(SCc2sc(-c3ccc(C(F)(F)F)cc3)nc2C)ccc1OCC(=O)O [GW501516] | – | – | Kel ([2]; 3 mg/Kg i.v.): 0.11 h⁻¹; F ([2]; 10 mg/Kg p.o.): 82.1%; Kel ([3]; 3 mg/Kg i.v.): 0.09 h⁻¹; F ([3]; 10 mg/Kg p.o.): ~100%; % Parent remained at 15 min, MLM [4]: 93/76%; % Parent remained at 60 min, MLM [4]: 93/76%; Evans Blue dye uptake, proportion of muscle cross sectional area (CSA) stained ([5]; 5 mg/kg orally, 4 days prior to and 5 days after injury, 5 days after the injury, vehicle 7.6%): 4.9%; expression of inflammatory marker genes by QPCR ([5]; 3 days after the injury): significantly reduced; reduction in the proportion of stained area ([5]; 5 days after the injury, versus vehicle): 34.7%; PPARδ target genes (PDK4, CPT1b, catalase) expression in TA by QPCR ([5]; 9 day treatment): Up-regulation; number of quiescent satellite cells ([5]; after 9 days or 4 weeks of ligand treatment): an increase in the number of quiescent satellite cells was not observed; induction of FGF1a (luciferase reporter) [6]: induction of FGF1a |
| Cc1cc(SCc2sc(-c3ccc(C(F)(F)F)cc3)nc2C)ccc1OCC(=O)O [GW] | – | – | liver C26:0 ([7]; 8 weeks of GW treatment): cleared in most GW-treated animals; levels of VLCFAs (C22:0, C23:0, C24:0, C26:0) in AKO brain and liver ([7]; 8 weeks of GW treatment, GC/MS): significantly reduced; expression of mitochondrial FA oxidation genes (Cpt1a, 1b, Slc25a20, Acadl) in AKO liver and skeletal muscle ([7]; GW treatment): dramatically induced; saturated LCFAs C12:0 to C22:0 and total FAs in liver and muscle ([7]; GW treatment): significantly reduced |
| CC(C)N(Cc1ccccc1OCCCCCC(=O)O)S(=O)(=O)c1ccc(-c2ccco2)cc1 [compound 152] | – | > 10000 | – |
| CC(C)N(Cc1cc(C#N)ccc1OCCCCCC(=O)O)C(=O)c1ccc(-c2ccco2)cc1 [compound 205] | – | 224 | – |
| CC(C)N(Cc1ccc(-c2ccco2)cc1)C(=O)c1ccccc1OCCCCCC(=O)O [compound 157] | – | > 10000 | – |
| CC(C)N(Cc1ccccc1OCCCCCC(=O)O)C(=O)c1cnc(-c2ccco2)s1 [compound 156] | – | 143 | – |
| CC(C)N(Cc1cccnc1OCCCCCC(=O)O)C(=O)c1ccc(-c2ccco2)cc1 [compound 207] | – | 19.4 | – |
| CC(C)N(Cc1ccccc1OCCCCc1nn[nH]n1)C(=O)c1ccc(-c2ccco2)cc1 [compound 219] | – | 338 | – |
| CC(C)N(Cc1ccccc1OCCCOCC(=O)O)C(=O)c1ccc(-c2ccco2)cc1 [compound 221] | – | 1300 | – |
| O=C(O)CCCCCOc1ccccc1CN(CC(F)(F)F)C(=O)c1ccc(-c2ccco2)cc1 [compound 177] | – | 12.1 | – |
| COCCN(Cc1ccccc1OCCCCCC(=O)O)C(=O)c1ccc(-c2ccco2)cc1 [compound 178] | – | 79.4 | – |
| COc1ccc(OCCCCCC(=O)O)c(CN(C(=O)c2ccc(-c3ccco3)cc2)C(C)C)c1 [compound 206] | 5.1 | – | – |
| O=C(O)CCCCCOc1ccccc1CNC(=O)c1ccc(-c2ccco2)cc1 [compound 179] | – | 485 | – |
| CC(C)N(C(=O)Cc1ccccc1OCCCCCC(=O)O)c1ccc(-c2ccco2)cc1 [compound 158] | – | > 10000 | – |
| O=C(O)CCCCCOc1ccccc1CN(Cc1ccccc1)C(=O)c1ccc(-c2ccco2)cc1 [compound 247] | 18.8 | – | – |
| CC(C)N(Cc1cc(Br)ccc1OCCCCCC(=O)O)C(=O)c1ccc(-c2ccco2)cc1 [compound 202] | 7.3 | – | – |
